Assay results taken from US7834148B2, “Protein phosphorylation imaging systems, methods of making phosphorylation imaging systems, and methods of use thereof” (Stanford University, priority 2006, dated 2010).

Assays:
[1] = system: Akt kinase activity; experiment: Akt kinase sensor complemented FL activity, bioluminescence imaging of intact 293T/AS1T and 293T/AS1A stable cells; type: cell-based, human
Description: Complemented FL activity at each time point was determined by bioluminescence imaging of intact cells by addition of D-luciferin (FIG. 7a), prior to normalization for protein content (FIG. 7b).
FL activities in intact cells were determined by bioluminescence imaging of intact cells as described above. Cells were lysed in 1% NP40 buffer (Cell Signaling, Beverly, Mass.) for 15 mins on ice followed by centrifugation at 1×10^4 g to remove cell debris. Protein concentrations were determined by Biorad protein Dc assay (Biorad). FL activities were normalized to protein content and then to that of carrier control treated cells and expressed as normalized FL activity±standard error of means (S.E.M.)

[2] = system: phosphorylated Akt(S^473); experiment: Phosphorylation-specific western blotting of Akt in cell lysates; type: cell-based, human; details: LY 24 hours or perifosine 6 hours
Description: To validate AS1T as a genetically-encoded reporter for indirect imaging of endogenous Akt kinase activity, confirmation needed to be made that inhibition of endogenous Akt phosphorylation/kinase activities by LY and perifosine corresponded to increase in complemented FL activities in 293T/AS1T cells, but not in 293T/AS1A cells. 293T/AS1T and 293T/AS1A cells were treated with perifosine (6 hours), LY (24 hours) and their respective carrier controls. Complemented FL activities were determined by bioluminescence imaging of intact cells while Akt phosphorylation status/kinase activities in cell lysates were determined by phosphorylation-specific western blotting and in vitro kinase assay using purified glycogen synthase kinase 3β (GSK-3β) as the substrate, respectively. In 293T/AS1T cells treated with LY or perifosine, complemented FL activity increased (FIGS. 8a and 8c), while the amount of phosphorylated Akt (FIGS. 8b and 8d, top panels) and phosphorylated GSk-3, (FIGS. 8b and 8d, bottom panel) decreased, relative to carrier control treated cells. […]
To determine the expression of total and phosphorylated Akt in 293T/AS1A and 293T/AS1T, cell lysates from the triplicate wells from the above FL assay were combined and the protein concentrations were re-determined. […]

[3] = system: Akt kinase; experiment: In vitro Akt kinase assay in cell lysates using purified GSK-3β as substrate; type: cell-based, human; details: LY 24 hours or perifosine 6 hours
Description: Complemented FL activities were determined by bioluminescence imaging of intact cells while Akt phosphorylation status/kinase activities in cell lysates were determined by phosphorylation-specific western blotting and in vitro kinase assay using purified glycogen synthase kinase 3β (GSK-3β) as the substrate, respectively.
To measure Akt kinase activities, 200 μg of whole cell lysates were used in an in vitro Akt kinase assay using a Cell Signaling kit (Beverly, Mass.). Briefly, Akt was immunoprecipitated using the immobilized Akt antibody, followed by an in vitro kinase assay at 30° C. for 1 hour using 1 μg of the purified GSK-3β fusion protein as the substrate. The kinase reaction was terminated with 3× loading buffer and heated at 95° C. for 3 mins. […] Membranes were developed as described above. In all cases, band intensities were quantified by Image J (National Institute of Health, Bethesada, Md.).

[4] = Water solubility (statement); type: physicochemical
[5] = 293T/AS1T cells, relative to carrier control

- water solubility [4]: water soluble
Structure (SMILES): CCCCCCCCCCCCCCCCCCOP(=O)([O-])OC1CC[N+](C)(C)CC1 [perifosine]
- complemented FL activity ([1]; 293T/AS1T at all time points (6, 12, 24 hours) and concentrations tested, compared to 293T/AS1A, p<0.05): dose-dependent increase
- time of maximum increase in complemented FL activity ([1]; 293T/AS1T cells): 6 h
- complemented FL activity after washout (reversibility) ([1]; 293T/AS1T, drug then carrier control, vs carrier control then drug or drug throughout, LY 50 μM 24+24 hours, perifosine 25 μM 6+6 hours): significantly lower
- amount of phosphorylated Akt ([2]; 293T/AS1A cells): decreased
- amount of phosphorylated Akt [2, 5]: decreased
- amount of phosphorylated GSK-3β ([3]; 293T/AS1A cells): decreased
- amount of phosphorylated GSK-3β [3, 5]: decreased
